Results reported in ChEMBL document CHEMBL1201862, “PubChem BioAssay data set” (2004).
The source made the active and inactive calls.

Assays:
[1] = biological target: Cytochrome P450 3A4 (Homo sapiens, UniProt P08684); settings: Potency;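 also: confirmatory qHTS run detecting inhibitors and substrates of CYP3A4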
[2] = biological target: Luciferin 4-monooxygenase (Photinus pyralis, UniProt P08659); experiment: Counter Screen for Luciferase-based Assay Positives. [Related pubchem assays: 620, 618, 411 ]
[3] = test system: HT-1080; experiment: HT1080 cell viability loss – fluorescence readout (AID 620); format: functional, cell-based; settings: Homo sapiens
[4] = cells
[5] = viability of uninfected HEp-2 cells – cell-based, HTS, cytotoxicity control for RSV inhibitor project, dose response (AID 2410); format: functional; settings: human respiratory syncytial virus
[6] = HEK-293T cell viability reduction – luminescence, B-cell screen hits, cytotoxicity control for BCR NF-kB inhibitor project, dose response (AID 489021); format: functional, cell-based;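 also: HEK-293T cells carrying an NF-kB luciferase reporter; cells exposed to compound for about 14 hours before viability readout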
[7] = alpha-synuclein stem-loop luciferase translation blockers – H4 neuroglioma cells, luminescence, confirmation (AID 1988); format: functional, cell-based
[8] = biological target: T1, Sphingosine 1-phosphate receptor 4 (Homo sapiens, UniProt O95977); experiment: Fluorescence dose response cell-based high throughput screening assay for antagonists of the Sphingosine 1-Phosphate Receptor 4 (S1P4). [Related pubchem assays: 1524 (Confirmation in triplicates.), 1510 (Primary screen.)]; format: functional
T1 sequence (O95977 whole entry): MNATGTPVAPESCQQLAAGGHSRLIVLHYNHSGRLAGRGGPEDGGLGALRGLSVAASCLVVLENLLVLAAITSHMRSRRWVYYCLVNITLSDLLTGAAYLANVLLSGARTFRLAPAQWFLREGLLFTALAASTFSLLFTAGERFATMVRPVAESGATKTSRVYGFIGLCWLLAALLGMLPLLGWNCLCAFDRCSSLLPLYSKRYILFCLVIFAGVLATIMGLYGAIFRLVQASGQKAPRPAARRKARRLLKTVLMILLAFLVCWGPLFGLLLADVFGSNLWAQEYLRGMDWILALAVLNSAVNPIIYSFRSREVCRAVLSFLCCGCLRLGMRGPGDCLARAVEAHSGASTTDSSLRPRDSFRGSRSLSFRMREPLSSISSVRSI

[9] = biological target: Melanocortin receptor 4 (Homo sapiens, UniProt P32245); experiment: inhibitors of MC4R cAMP signaling – cell-based, TR-FRET, biased antagonists, dose response (AID 602298); format: functional;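 also: antagonist potency against agonist-stimulated cAMP production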
[10] = test system: INS1; experiment: INS-1E survival protection against cytokine death – cell-based, luminescence, retest, dose response (AID 449756); format: functional; settings: Rattus norvegicus;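 also: cell death triggered by IL-1 beta plus TNF-alpha plus IFN-gamma mixture; protective hits raise ATP signal compared with cytokine alone wells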
[11] = biological target: Beta-galactosidase (Escherichia coli, UniProt Q8VNN2); format: functional
[12] = biological target: T2, Kappa-type opioid receptor (Homo sapiens, UniProt P41145); format: functional
[13] = biological target: Sphingosine 1-phosphate receptor 1 (Homo sapiens, UniProt P21453); format: functional;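 also: Tango beta-arrestin reporter U2OS cells stimulated with S1P near its EC80; inhibitor potency meaning antagonism of receptor activation by the natural agonist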
[14] = biological target: T2, Kappa-type opioid receptor; format: functional; remark: listed apart in the source
[15] = cAMP pathway inhibition in counterscreen cell line – TR-FRET cAMP detection, counter-screen for MC4R biased antagonist project, dose response (AID 602305); format: functional, cell-based;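 also: U2OS cells stimulated with forskolin near its EC80 as the cAMP inducer; potency is for inhibition of forskolin-stimulated cAMP signaling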
[16] = luciferase reporter signal suppression in cells – H4 neuroglioma cells, luminescence, dose response (AID 1990); format: functional, cell-based
[17] = Luminescence Cell-Based Dose Response HTS to Identify Inhibitors of 5'UTR Stem-Loop Driven Prion Protein mRNA Translation in H4 Neuroglioblastoma Cells. [Related pubchem assays: 1827 (Project Summary), 1813 (Primary HTS)]; format: functional
[18] = biological target: Dual specificity protein phosphatase 3 (Homo sapiens, UniProt P51452); experiment: SAR VHR1 Fluorescent Assay for In Vitro dose response studies Set 2. [Related pubchem assays (depositor defined):AID1654, AID1661, AID1878]; format: functional
[19] = biological target: T3, Tyrosine-protein phosphatase non-receptor type 7 (Homo sapiens, UniProt P35236); experiment: SAR analysis of chemical inhibitors of HePTP using a Fluorescent assay - Set 2. [Related pubchem assays (depositor defined):AID1059, AID1077, AID1661, AID2085, AID521]; format: functional
T3 sequence (P35236 whole entry): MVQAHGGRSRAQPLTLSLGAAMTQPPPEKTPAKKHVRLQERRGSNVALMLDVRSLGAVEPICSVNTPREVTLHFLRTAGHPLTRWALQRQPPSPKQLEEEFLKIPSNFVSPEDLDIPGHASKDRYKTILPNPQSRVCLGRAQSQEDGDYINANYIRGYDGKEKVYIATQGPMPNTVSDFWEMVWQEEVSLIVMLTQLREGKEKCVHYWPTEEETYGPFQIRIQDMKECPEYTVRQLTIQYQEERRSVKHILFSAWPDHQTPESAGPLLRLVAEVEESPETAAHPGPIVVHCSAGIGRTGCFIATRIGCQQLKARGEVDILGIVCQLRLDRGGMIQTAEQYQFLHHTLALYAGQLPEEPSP

[20] = test system: Streptococcus; experiment: Luminescence Microorganism-Based Dose Response Follow up to Identify Compounds Cytotoxic to Streptococcus. [Related pubchem assays: 1677 (Project Summary), 1915, 1914, 1902 (Retest at Dose), 1900 (Counter Screen), 1662 (Primary HTS)]; format: functional, organism-based
[21] = test system: Streptococcus; experiment: GAS UMAA2166 growth inhibition – luminescence, BacTiterGlo, counter-screen for streptokinase expression inhibitor project, dose response (AID 1915); format: functional, organism-based;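 also: potency for reduction of bacterial viability or growth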
[22] = biological target: T4, Streptokinase A (Streptococcus pyogenes serotype M1, UniProt P10520); experiment: viability-normalized secreted streptokinase activity reduction – plasminogen activation absorbance, OD405, dose response (AID 1914); format: functional, Streptococcus pyogenes M1 GAS;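 also: secreted streptokinase activity via plasminogen activation per viability signal from cell pellet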
T4 sequence (P10520 whole entry): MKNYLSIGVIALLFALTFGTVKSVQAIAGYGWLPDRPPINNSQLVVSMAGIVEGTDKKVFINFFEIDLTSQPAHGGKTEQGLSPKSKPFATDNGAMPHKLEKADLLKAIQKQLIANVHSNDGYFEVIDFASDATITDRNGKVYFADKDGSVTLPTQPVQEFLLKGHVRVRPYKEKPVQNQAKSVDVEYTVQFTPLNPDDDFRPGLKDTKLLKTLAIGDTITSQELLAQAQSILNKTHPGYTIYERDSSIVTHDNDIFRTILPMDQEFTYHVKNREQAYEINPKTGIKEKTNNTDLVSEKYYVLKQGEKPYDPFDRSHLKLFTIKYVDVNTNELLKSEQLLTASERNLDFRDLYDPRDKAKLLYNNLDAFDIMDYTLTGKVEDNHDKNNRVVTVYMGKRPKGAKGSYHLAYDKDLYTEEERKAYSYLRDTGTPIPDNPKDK

[23] = test system: Streptococcus sp. 'group A'; experiment: Streptococcus pyogenes SK(-)GAS viability under kanamycin – luminescence, BacTiterGlo, confirmation, counter-screen for streptokinase expression inhibitor project, dose response (AID 1900); format: functional, organism-based
[24] = biological target: T5, Hexokinase HKDC1 (Homo sapiens, UniProt Q2TB90); experiment: inhibition of HKDC1 glucose phosphorylation – biochemical, W721R variant, dose response (AID 504729); format: functional
T5 sequence (Q2TB90 whole entry): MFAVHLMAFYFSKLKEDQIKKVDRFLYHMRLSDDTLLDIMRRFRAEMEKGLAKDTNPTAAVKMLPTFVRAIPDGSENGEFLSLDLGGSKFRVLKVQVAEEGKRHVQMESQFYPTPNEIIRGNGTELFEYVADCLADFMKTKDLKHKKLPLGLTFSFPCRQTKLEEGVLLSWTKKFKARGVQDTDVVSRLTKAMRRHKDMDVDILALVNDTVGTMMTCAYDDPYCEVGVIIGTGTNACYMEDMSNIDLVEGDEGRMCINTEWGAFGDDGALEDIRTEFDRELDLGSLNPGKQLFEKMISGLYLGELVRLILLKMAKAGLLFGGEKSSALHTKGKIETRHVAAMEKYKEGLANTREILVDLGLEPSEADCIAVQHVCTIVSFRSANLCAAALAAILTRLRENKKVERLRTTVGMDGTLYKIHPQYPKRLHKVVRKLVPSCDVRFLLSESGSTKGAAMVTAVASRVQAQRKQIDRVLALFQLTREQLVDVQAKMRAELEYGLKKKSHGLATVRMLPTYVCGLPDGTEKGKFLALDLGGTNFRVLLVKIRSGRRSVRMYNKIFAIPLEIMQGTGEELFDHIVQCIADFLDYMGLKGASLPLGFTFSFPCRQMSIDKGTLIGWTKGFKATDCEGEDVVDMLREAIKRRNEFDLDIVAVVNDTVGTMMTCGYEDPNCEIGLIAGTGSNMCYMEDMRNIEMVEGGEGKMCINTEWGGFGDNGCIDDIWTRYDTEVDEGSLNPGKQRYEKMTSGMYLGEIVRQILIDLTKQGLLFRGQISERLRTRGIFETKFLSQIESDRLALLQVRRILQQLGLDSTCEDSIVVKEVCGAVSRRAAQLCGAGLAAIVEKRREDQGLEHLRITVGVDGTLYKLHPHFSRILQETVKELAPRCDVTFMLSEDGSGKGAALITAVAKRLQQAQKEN

[25] = biological target: Vasopressin V1a receptor (Homo sapiens, UniProt P37288); experiment: Counterscreen for Oxytocin Receptor (OXTR) agonists: Fluorescence-based cell-based high throughput dose response assay to identify agonists of the vasopressin 1 receptor (V1R). [Related pubchem assays: 2435 (Primary screen (OXTR agonists in singlicate)), 434991 (Counterscreen (V1R agonists in triplicate)), 2482 (Summary (OXTR agonists)) …; format: functional
[26] = biological target: T6, Microphthalmia-associated transcription factor (Homo sapiens, UniProt O75030); experiment: reducers of TRPM1 reporter luminescence, concentration series – cell-based, SK-MEL-5, cherry-picked, set 3, MITF inhibitor project, dose response (AID 493073); format: functional;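 also: SK-MEL-5 melanoma cells with luciferase driven by the MITF target TRPM1 promoter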
T6 sequence (O75030 whole entry): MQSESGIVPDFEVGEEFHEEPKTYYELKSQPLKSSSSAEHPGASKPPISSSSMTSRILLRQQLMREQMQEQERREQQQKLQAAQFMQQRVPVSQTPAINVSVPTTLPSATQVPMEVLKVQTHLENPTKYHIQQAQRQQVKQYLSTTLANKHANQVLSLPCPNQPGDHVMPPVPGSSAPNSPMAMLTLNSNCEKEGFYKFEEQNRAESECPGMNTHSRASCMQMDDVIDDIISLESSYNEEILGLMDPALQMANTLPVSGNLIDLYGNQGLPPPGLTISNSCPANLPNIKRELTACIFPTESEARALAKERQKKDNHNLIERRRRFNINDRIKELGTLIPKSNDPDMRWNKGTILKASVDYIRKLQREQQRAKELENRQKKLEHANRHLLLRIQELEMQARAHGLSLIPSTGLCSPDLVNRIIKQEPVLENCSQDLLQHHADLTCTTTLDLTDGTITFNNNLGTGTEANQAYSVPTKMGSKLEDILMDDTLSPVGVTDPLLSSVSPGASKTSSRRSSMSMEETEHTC

[27] = test system: A-375; experiment: MITF: Counter assay: A375 proliferation Measured in Cell-Based System Using Plate Reader - 2084-03_Inhibitor_Dose_DryPowder_Activity. [Related pubchem assays (depositor defined):AID488944]; format: functional; settings: Homo sapiens
[28] = general mammalian cell viability loss – activator set, cherry-pick, cytotoxicity control for miR-122 modulator project, dose response (AID 720690); format: functional, cell-based;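 also: HEK293T human cells scored for general mammalian cytotoxicity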
[29] = activation of miR-122 Renilla sensor silencing – cell-based, Huh7 psiCHECK-miR122, Renilla luciferase, cherry-picked, dose response (AID 651956); format: functional;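 also: huh7 hepatoma cells stably carrying a psiCHECK-2 miR-122 sensor plasmid; renilla luciferase signal reporting endogenous miR-122 activity after 48 h compound exposure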
[30] = biological target: Oxytocin receptor (Homo sapiens, UniProt P30559); experiment: Fluorescence-based cell-based high throughput dose response assay for agonists of the Oxytocin Receptor (OXTR). [Related pubchem assays: 2435 (Primary screen (OXTR agonists in singlicate)), 434991 (Counterscreen (V1R agonists in triplicate)), 2482 (Summary (OXTR agonists)), 434963 (Confirmation screen (OXTR agonists in triplicate))]; format: functional
Chain of Oxytocin receptor (P30559 whole entry): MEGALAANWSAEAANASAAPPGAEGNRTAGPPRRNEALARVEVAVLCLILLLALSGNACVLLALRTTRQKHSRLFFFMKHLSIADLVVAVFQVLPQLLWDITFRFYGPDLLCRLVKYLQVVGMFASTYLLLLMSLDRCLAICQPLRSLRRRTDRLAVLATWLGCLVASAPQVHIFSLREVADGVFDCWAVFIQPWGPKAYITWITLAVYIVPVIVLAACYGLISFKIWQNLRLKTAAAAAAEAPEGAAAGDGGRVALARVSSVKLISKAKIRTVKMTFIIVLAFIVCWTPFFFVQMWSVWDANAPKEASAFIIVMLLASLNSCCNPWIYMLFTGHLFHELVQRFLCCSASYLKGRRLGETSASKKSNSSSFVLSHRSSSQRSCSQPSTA

Chain of Cytochrome P450 3A4 (P08684 whole entry): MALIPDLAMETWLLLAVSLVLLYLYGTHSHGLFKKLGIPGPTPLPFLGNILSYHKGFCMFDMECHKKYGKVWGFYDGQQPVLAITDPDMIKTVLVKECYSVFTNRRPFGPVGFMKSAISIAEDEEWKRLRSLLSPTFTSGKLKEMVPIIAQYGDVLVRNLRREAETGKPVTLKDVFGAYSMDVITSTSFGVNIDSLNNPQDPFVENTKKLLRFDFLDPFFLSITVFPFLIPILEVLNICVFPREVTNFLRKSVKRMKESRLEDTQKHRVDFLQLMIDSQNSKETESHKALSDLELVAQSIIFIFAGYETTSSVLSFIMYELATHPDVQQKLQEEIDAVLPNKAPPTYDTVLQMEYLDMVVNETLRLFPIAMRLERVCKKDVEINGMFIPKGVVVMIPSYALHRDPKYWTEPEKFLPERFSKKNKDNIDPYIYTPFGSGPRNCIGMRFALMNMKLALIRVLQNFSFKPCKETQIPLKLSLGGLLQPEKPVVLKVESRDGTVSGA
Chain of Dual specificity protein phosphatase 3 (P51452 whole entry): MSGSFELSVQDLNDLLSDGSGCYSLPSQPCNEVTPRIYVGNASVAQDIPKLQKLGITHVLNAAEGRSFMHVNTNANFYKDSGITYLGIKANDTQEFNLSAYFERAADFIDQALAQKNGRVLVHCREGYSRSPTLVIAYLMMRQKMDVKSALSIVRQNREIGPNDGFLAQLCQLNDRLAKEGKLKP
T2 sequence (P41145 whole entry): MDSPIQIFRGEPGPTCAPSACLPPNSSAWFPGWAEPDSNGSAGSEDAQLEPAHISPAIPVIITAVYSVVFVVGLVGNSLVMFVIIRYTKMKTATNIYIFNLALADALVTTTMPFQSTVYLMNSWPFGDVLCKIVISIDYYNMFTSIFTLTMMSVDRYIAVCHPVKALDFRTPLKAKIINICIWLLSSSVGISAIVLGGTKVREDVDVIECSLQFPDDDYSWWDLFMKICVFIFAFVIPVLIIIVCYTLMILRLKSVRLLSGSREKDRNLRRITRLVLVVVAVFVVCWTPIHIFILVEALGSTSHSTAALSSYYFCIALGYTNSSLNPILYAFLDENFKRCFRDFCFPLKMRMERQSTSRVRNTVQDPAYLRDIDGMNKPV
Chain of Luciferin 4-monooxygenase (P08659 whole entry): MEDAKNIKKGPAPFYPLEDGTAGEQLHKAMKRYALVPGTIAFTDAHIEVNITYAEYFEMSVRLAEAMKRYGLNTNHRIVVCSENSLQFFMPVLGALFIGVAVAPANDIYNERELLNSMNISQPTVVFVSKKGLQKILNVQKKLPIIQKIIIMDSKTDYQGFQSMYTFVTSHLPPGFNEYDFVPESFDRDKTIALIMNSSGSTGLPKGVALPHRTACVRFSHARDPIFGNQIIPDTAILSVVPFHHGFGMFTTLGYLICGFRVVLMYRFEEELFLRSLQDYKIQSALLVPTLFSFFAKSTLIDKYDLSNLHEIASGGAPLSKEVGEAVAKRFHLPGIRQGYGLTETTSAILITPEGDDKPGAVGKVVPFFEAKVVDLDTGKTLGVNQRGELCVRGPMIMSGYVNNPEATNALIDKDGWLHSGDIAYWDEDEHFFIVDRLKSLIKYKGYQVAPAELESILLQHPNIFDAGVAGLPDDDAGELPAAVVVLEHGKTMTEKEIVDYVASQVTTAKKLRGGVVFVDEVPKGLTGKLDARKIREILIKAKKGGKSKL
Chain of Sphingosine 1-phosphate receptor 1 (P21453 whole entry): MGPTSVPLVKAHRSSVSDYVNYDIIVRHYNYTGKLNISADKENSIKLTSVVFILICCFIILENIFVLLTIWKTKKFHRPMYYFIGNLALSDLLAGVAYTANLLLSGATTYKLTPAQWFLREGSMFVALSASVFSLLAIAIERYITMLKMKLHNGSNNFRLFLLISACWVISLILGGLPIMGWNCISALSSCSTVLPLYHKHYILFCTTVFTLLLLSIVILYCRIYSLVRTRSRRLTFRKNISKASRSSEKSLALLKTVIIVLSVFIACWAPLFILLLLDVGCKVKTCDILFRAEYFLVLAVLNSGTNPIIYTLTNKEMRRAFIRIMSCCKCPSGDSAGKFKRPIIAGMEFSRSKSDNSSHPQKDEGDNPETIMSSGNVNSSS
Chain of Beta-galactosidase (Q8VNN2 whole entry): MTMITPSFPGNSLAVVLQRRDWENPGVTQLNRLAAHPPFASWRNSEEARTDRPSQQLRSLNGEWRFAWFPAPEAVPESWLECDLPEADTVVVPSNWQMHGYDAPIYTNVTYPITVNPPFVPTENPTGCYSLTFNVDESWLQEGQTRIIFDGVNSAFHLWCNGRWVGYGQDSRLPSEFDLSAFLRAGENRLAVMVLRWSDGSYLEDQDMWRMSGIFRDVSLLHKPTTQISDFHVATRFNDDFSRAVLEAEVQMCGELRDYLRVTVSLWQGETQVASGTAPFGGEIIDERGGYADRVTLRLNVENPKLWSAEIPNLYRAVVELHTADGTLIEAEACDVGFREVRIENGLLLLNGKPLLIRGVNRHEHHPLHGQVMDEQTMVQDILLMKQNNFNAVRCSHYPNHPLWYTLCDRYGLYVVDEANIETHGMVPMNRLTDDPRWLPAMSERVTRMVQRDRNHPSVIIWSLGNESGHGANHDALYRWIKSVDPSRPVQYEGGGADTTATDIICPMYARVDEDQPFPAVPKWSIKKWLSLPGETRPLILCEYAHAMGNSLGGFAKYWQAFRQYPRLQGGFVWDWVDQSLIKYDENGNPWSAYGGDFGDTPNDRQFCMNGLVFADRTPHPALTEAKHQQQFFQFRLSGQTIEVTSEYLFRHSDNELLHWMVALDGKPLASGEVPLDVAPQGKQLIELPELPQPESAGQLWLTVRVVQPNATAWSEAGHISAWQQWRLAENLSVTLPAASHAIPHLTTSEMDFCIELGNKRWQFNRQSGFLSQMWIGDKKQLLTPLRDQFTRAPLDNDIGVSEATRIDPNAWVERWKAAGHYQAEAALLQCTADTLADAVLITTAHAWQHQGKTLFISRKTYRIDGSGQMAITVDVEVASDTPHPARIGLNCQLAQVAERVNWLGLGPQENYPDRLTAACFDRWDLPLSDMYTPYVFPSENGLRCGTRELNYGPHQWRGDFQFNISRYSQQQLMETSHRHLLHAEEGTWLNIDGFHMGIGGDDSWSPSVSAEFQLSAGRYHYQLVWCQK
Chain of Melanocortin receptor 4 (P32245 whole entry): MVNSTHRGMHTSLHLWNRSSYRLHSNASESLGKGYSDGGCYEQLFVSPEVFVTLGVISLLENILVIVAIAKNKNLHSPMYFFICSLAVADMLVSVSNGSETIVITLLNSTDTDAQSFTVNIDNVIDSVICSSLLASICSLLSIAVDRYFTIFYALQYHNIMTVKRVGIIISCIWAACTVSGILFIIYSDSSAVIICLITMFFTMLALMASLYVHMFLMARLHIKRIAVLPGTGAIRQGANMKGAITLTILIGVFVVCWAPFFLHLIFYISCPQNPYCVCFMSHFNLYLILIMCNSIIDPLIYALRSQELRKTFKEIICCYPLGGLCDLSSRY
Chain of Vasopressin V1a receptor (P37288 whole entry): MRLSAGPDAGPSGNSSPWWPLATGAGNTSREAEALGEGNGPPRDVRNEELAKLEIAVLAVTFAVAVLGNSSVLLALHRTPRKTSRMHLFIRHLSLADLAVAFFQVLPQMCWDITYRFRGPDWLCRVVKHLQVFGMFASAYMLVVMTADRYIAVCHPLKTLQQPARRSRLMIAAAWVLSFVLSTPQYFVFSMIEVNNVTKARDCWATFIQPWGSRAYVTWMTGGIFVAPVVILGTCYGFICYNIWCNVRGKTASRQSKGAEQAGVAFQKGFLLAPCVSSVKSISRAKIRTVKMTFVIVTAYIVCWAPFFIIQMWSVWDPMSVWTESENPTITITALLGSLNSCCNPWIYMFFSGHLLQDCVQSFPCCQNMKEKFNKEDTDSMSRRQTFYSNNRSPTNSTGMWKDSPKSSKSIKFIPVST

CCOC(=O)CC(SP(=O)(OC)OC)C(=O)OCC (stereo not drawn)
AC50 [1]: 25.1 µM (inconclusive)

CC(=O)Nc1ccc(OC(=O)N2CCCCC2)cc1
EC50 [2]: 3.67 µM (active) | EC50 [3]: > 50 µM (not active)

Cn1cnnc1Sc1cc(N2CCN(S(=O)(=O)c3ccc(Cl)c(Cl)c3)CC2)ccc1[N+](=O)[O-]
IC50 [4]: 10.7 µM (active) | CC50 [5]: > 50 µM (active)

CCC(=O)N1c2ccccc2[C@@H](N(C(C)=O)c2ccccc2)C[C@H]1C
IC50 [6]: > 80 µM (inactive)

COc1ccc(C(=O)/C(=C\c2ccco2)N2C=CC=CC2=C(C#N)C#N)cc1
EC50 [7]: 0.141 µM (active) | IC50 [8]: 2.01 µM (active) | IC50 [9]: > 64.6 µM (inactive) | AC50 [10]: 5.51 µM (active) | EC50 [11]: > 31.5 µM (inactive) | IC50 [12]: 18 µM | IC50 [13]: 9.37 µM (active) | IC50 [14]: 5.93 µM (active) | IC50 [15]: > 64.6 µM (inactive) | EC50 [16]: 7.21 µM (inconclusive) | EC50 [17]: 12.3 µM (active)

NS(=O)(=O)c1ccc(NC(=S)N2CCN(Cc3ccc(Cl)c(Cl)c3)CC2)cc1
EC50 [7]: > 120 µM (not active) | IC50 [18]: > 100 µM (inactive) | IC50 [19]: 48.4 µM (active) | EC50 [16]: 34.5 µM (active) | EC50 [17]: > 120 µM (not active)

Cc1ccc(C(=O)C(c2ccccc2)N2Cc3ccccc3C2=N)cc1 (stereo not drawn)
EC50 [20]: 33.5 µM (active)

COc1ccc(-n2ncc3c(NCC(C)C)ncnc32)cc1
EC50 [2]: 1.17 µM (active) | EC50 [3]: > 50 µM (not active)

CCN(CC)C(=S)SCC(=O)Nc1nc(-c2ccccc2)c(-c2ccccc2)o1
EC50 [21]: > 150 µM (not active) | EC50 [22]: 8.54 µM (active) | EC50 [23]: 7.26 µM (active) | EC50 [20]: > 500 µM (not active)

COc1ccc(NC(=O)CSc2ccc(-c3cccnc3)nn2)c(OC)c1
IC50 [24]: 17.8 µM (active)

N=c1n(CC(=O)c2ccc(Br)s2)c2ccccc2n1Cc1ccccc1
EC50 [25]: 15.1 µM (not active) | AC50 [26]: 7.34 µM (active) | AC50 [27]: 19.7 µM (active) | AC50 [28]: 11.4 µM (active) | AC50 [29]: 10.9 µM (active) | EC50 [30]: 14.8 µM (not active)

COc1cc(C(=S)NCc2cccc(C(F)(F)F)c2)ccc1O
IC50 [18]: 47 µM (active) | IC50 [19]: 55 µM (active)

O=c1ccc2nccc3c4c(O)cccc4n1c23
EC50 [7]: 11.9 µM (active) | IC50 [6]: > 80 µM (inactive) | EC50 [16]: 12.7 µM (active) | EC50 [17]: 9.94 µM (active)

CC(C)=CCOc1cc2oc(=O)ccc2cc1O [PRENYLETIN]
AC50 [1]: 39.8 µM (inconclusive)
